# Patent publication US20140194500A1 (Kookmin University Industry Academic Cooperation Foundation, priority 2013, published 2014)
# Read-outs that look alike come from different tables or passages of the source.
# How the values were obtained:
# [1] = target: HCV NS3h (Hepatitis C virus genotype 1a, UniProt P27958); assay type: biochemical
# [2] = target: T1, SARS coronavirus helicase nsP13 (Severe acute respiratory syndrome coronavirus, UniProt P0C6X7); assay type: biochemical
# [3] = tested on: MCF10A cells; settings: human
# [4] = target: HCV viral helicase, NS3h (Hepatitis C virus genotype 1a, UniProt P27958); assay type: biochemical
# [5] = tested on: MCF10A cells; assay: Cytotoxicity: growth of normal breast epithelial MCF10A cells; settings: 2 μM, counted every 24h for 3 days
# [6] = target: T1, SARS coronavirus helicase nsP13; assay: biochemical; settings: for inhibition at 10 µM: read-out: inhibition of the ATPase activity of nsP13
# HCV viral helicase, NS3h, sequence (P27958 1193-1657): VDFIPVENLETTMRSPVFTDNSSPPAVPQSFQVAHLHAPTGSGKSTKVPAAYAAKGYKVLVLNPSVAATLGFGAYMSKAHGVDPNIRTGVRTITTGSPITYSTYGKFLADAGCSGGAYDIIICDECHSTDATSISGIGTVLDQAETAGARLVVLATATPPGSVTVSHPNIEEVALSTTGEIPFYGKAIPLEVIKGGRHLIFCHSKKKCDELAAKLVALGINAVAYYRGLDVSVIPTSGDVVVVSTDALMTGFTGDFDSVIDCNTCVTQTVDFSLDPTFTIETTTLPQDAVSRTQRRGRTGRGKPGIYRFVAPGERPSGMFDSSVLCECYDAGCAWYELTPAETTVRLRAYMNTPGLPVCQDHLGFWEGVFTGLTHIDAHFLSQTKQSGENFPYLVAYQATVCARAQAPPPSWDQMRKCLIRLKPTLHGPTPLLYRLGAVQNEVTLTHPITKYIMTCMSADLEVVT
# HCV NS3h, sequence (P27958 1193-1657): as above
molecule,measurement,setting,value
"O=c1c(O)c(-c2cc(O)c(O)c(O)c2)oc2cc(O)cc(O)c12 [No. 6, myricetin]",suppression of the ATPase activity of the HCV viral helicase,[1],did not seem to suppress the ATPase activity of HCV helicase protein
same,"inhibition of the dsDNA-unwinding activity of SARS helicase, nsP13",[2],not inhibition of helicase activity
same,effect on the growth of MCF10A cells (viable cell number),[3],did not affect the growth of MCF10A cells
same,inhibition of the DNA unwinding activity of HCV viral helicase,[4],did not suppress the helicase activity of HCV virus
"O=c1cc(-c2ccc(O)cc2)oc2cc(O)c(O)c(O)c12 [No. 8, scutellarein]",effect on the growth of MCF10A cells (viable cell number),[5],did not affect the growth of MCF10A cells
same,IC50,[6],860 ± 480 nM
same,inhibition at 10 µM,[6],> 90%
"O=c1cc(-c2ccc(O)c(-c3c(O)cc(O)c4c(=O)cc(-c5ccc(O)cc5)oc34)c2)oc2cc(O)cc(O)c12 [No. 18, amentoflavone]",inhibition at 10 µM,[6],~20%
"CC1(C)CC[C@]2(C)CC=C3[C@]4(C)CC[C@H]5C(C)(C)[C@@H](O)CC[C@]5(C)[C@H]4CC[C@@]3(C)[C@@H]2C1 [No. 58, taraxerol]",inhibition at 10 µM,[6],~20%
Diosmetin-7-O-Glc-Xyl [No. 35],inhibition of the ATPase activity of nsP13,[6]; 10 µM,around 20%
